According to patent US10961526B2, “Transformant, and method for producing protocatechuic acid or salt thereof using same” (RESEARCH INSTITUTE OF INNOVATIVE TECHNOLOGY FOR THE EARTH, priority 2016, dated 2021):

Experiments:
Format in all cases: cell-based
[1] = test system: Corynebacterium glutamicum strain R; assay: Inhibition by protocatechuic acid of growth in aerobic culture (OD610)
Description: (§1) In a case where a product that has cytotoxicity, such as protocatechuic acid, is produced by the fermentation process using microorganisms, it is important that a host microorganism has resistance against the product, that is, hardly suffers from growth inhibition by the product. Then, for studying the degree of resistance against protocatechuic acid of Corynebacterium glutamicum, which is preferable as a host microorganism in the present invention, in comparison with other microorganisms, studies were made on the inhibition by protocatechuic acid of the growth of Corynebacterium glutamicum, Escherichia coli, Bacillus subtilis, Pseudomonas putida, Rhodococcus erythropolis, and Saccharomyces cerevisiae in aerobic culture.
Corynebacterium glutamicum strain R was applied to an A-agar plate [obtained by dissolving the following in distilled water 1 L: (NH2)2CO 2 g, (NH4)2SO4 7 g, KH2PO4 0.5 g, K2HPO4 0.5 g, MgSO4.7H2O 0.5 g, 0.06% (w/v) Fe2SO4.7H2O+0.042% (w/v) MnSO4.2H2O 1 ml, 0.02% (w/v) biotin solution 1 ml, 0.01% (w/v) thiamine solution 2 ml, yeast extract 2 g, vitamin assay casamino acid 7 g, agar 20 g] containing glucose at 4%, and was cultured at 33° C. for 16 hours. […] The growth of bacterial cells was determined by measuring OD610.
(§2) How the addition of protocatechuic acid to medium influenced aerobic growth of each strain was analyzed, and the results are shown in FIG. 2.

[2] = test system: Pseudomonas putida strain ATCC700801; assay: as above; details: LB-liquid medium, aerobic shaking culture 30° C.
Description: as §1
(§3) Further, Escherichia coli strain K12, Bacillus subtilis strain NBRC14144, Pseudomonas putida strain ATCC700801, and Rhodococcus erythropolis strain ATCC27854 were applied to LB-agar plate [containing 1% polypeptone, 0.5% yeast extract, 0.5% sodium chloride, and 1.5% agar]. Escherichia coli strain K12 and Bacillus subtilis strain NBRC14144 were cultured at 37° C. for 16 hours, while Pseudomonas putida strain ATCC700801 and Rhodococcus erythropolis strain ATCC27854 were cultured at 30° C. for 16 hours. Each strain grown on the plate described above was inoculated in 10 ml of LB-liquid medium [1% polypeptone, 0.5% yeast extract, and 0.5% sodium chloride]. Escherichia coli strain K12 and Bacillus subtilis strain NBRC14144 were subjected to aerobic shaking culture at 37° C. for 16 hours, while Pseudomonas putida strain ATCC700801 and Rhodococcus erythropolis strain ATCC27854 were subjected to aerobic shaking culture at 30° C. for 16 hours. Each strain grown under the above-described conditions was inoculated in 10 ml of the LB-liquid medium so that the initial bacterial cell concentration OD610=0.1, and simultaneously protocatechuic acid was added so that the final concentrations were 0, 25, 50, 100, 250, 500 mM. Escherichia coli strain K12 and Bacillus subtilis strain NBRC14144 were subjected to aerobic shaking culture at 37° C., while Pseudomonas putida strain ATCC700801 and Rhodococcus erythropolis strain ATCC27854 was subjected aerobic shaking culture at 30° C. The growth of bacterial cells was determined by measuring OD610.
as §2

[3] = test system: Bacillus subtilis strain NBRC14144; assay: as above; details: LB-liquid medium, aerobic shaking culture 37° C.
Description: as §1, §3, §2

[4] = test system: Escherichia coli strain K12; assay: as above; details: LB-liquid medium, aerobic shaking culture 37° C.
Description: as §1, §3, §2

[5] = test system: Rhodococcus erythropolis strain ATCC27854; assay: as above; details: LB-liquid medium, aerobic shaking culture 30° C.
Description: as §1, §3, §2

[6] = test system: Corynebacterium glutamicum strain R; assay: Glucose consumption under presence of high concentration of protocatechuic acid; details: high concentration of protocatechuic acid (0, 50, 250, 500 mM), 24-hour culture, 33° C.
Description: As indicated in Reference Example 1, Corynebacterium glutamicum was able to grow even under the presence of a high concentration of protocatechuic acid. Then, a glucose consumption ability of Corynebacterium glutamicum under the presence of a high concentration of protocatechuic acid was further studied in the following manner.
Corynebacterium glutamicum strain R was applied to the above-described A-agar plate containing glucose 4%, and was cultured at 33° C. for 16 hours. One platinum loop of Corynebacterium glutamicum strain R grown on the above-described plate was inoculated in a test tube having therein 10 ml of the above-described A-liquid medium containing glucose 4%, and was subjected to aerobic shaking culture at 33° C. for 16 hours. Corynebacterium glutamicum strain R grown under the above-described conditions was inoculated in 10 ml of the above-described A-liquid medium containing glucose 4% so that the initial bacterial cell concentration OD610=0.2. Simultaneously, protocatechuic acid was added so that the final concentrations thereof became 0, 50, 250, 500 mM, and aerobic shaking culture was carried out at 33° C. After 24-hour culture, culture solutions were collected, and centrifuged (4° C., 15,000×g, 5 minutes). Concentrations of glucose in the supernatants obtained were measured by a glucose sensor in the same manner as Example 2 to be described below. […]

[7] = test system: Saccharomyces cerevisiae strain NBRC2376; assay: Inhibition by protocatechuic acid of growth in aerobic culture (OD610); details: YPD liquid medium, aerobic shaking culture 30° C.
Description: as §1
Further, Saccharomyces cerevisiae strain NBRC2376 was applied to YPD agar plate [2% polypeptone, 1% yeast extract, 2% glucose, and 1.5% agar], and was cultured at 30° C. for 16 hours. Saccharomyces cerevisiae strain NBRC2376 on the plate described above was inoculated in YPD liquid medium [2% polypeptone, 1% yeast extract, and 2% glucose], and was subjected to aerobic shaking culture at 30° C. for 16 hours. […] The growth of bacterial cells was determined by measuring OD610.
as §2

## O=C(O)c1ccc(O)c(O)c1 [protocatechuic acid]
[1]; 500 mM protocatechuic acid
  growth capacity of Corynebacterium glutamicum: robust growth capacity
[1]; 250 to 500 mM of protocatechuic acid, A-liquid medium with glucose 4%, aerobic shaking culture 33° C.
  growth of Corynebacterium glutamicum strain R: robust growth
[2]; 100 mM protocatechuic acid
  growth of Pseudomonas putida strain ATCC700801: strongly inhibited
[2]; 250 mM protocatechuic acid
  growth of Pseudomonas putida strain ATCC700801: substantially completely inhibited
[3]; 250 mM protocatechuic acid
  growth of Bacillus subtilis strain NBRC14144: significantly inhibited
[3]; 500 mM protocatechuic acid
  growth of Bacillus subtilis strain NBRC14144: substantially completely inhibited
[4]; 100 mM protocatechuic acid
  growth of Escherichia coli strain K12: significantly inhibited
[4]; 250 mM protocatechuic acid
  growth of Escherichia coli strain K12: substantially completely inhibited
[5]; 250 mM protocatechuic acid
  growth of Rhodococcus erythropolis strain ATCC27854: strongly inhibited
[5]; 500 mM protocatechuic acid
  growth of Rhodococcus erythropolis strain ATCC27854: substantially completely inhibited
[6]
  decrease in the saccharide consumption by Corynebacterium glutamicum: small
[7]; 250 mM protocatechuic acid
  growth of Saccharomyces cerevisiae strain NBRC2376: inhibited
[7]; 500 mM protocatechuic acid
  growth of Saccharomyces cerevisiae strain NBRC2376: significantly inhibited
